{"source": "patent US20060194883A1", "about": "“Mmp expression inhibitor” (EISAI CO., LTD, priority 2003, published 2006)", "assay_in_all_cases": "gene expression with TPA induction, RT-PCR", "assay_type_in_all_cases": "cell-based", "details_in_all_cases": "HepG2; 20 nM of TPA alone", "key": {"MMP-1": {"test_system": "MMP-1", "procedure": "(§1) MMP and Ets-1, the expression of which is inhibited by menatetrenone, are known to be genes that are induced by 12-O-tetradecanoylphorbol-13-acetate (TPA) as well as uPA (urokinase plasminogen activator) and the like. In order to discover whether menatetrenone controls expression of genes activated by TPA, TPA was added to HepG2 cultured hepatic cancer cells at a concentration of 20 nM, menatetrenone was then added thereto, and RT-PCR and Western blot were performed to investigate whether expression of the aforementioned gene expression of which was induced by TPA was affected. […] On the other hand, the uPA receptor uPAR and the uPA inhibitor PAI were not affected."}, "uPA receptor uPAR": {"test_system": "uPA receptor uPAR", "procedure": "as §1"}, "MMP-3": {"test_system": "MMP-3", "procedure": "as §1"}, "uPA inhibitor PAI": {"test_system": "uPA inhibitor PAI", "procedure": "as §1"}, "MMP-7": {"test_system": "MMP-7", "procedure": "as §1"}, "[1]": {"test_system": "uPA (urokinase plasminogen activator)", "procedure": "as §1"}, "Ets-1": {"test_system": "Ets-1", "procedure": "as §1"}}}
{"smiles": "CCCCCCCCCCCCCC(=O)O[C@@H]1[C@@H](C)[C@@]2(O)[C@@H](C=C(CO)C[C@]3(O)C(=O)C(C)=C[C@@H]23)[C@@H]2C(C)(C)[C@]12OC(C)=O", "note": "[TPA, 12-O-tetradecanoylphorbol-13-acetate]", "values": [{"measurement": "mRNA expression of MMP-1", "setting": "MMP-1", "result": "increased"}, {"measurement": "mRNA expression of uPAR", "setting": "uPA receptor uPAR", "result": "not affected"}, {"measurement": "mRNA expression of MMP-3", "setting": "MMP-3", "result": "increased"}, {"measurement": "mRNA expression of PAI", "setting": "uPA inhibitor PAI", "result": "not affected"}, {"measurement": "mRNA expression of MMP-7", "setting": "MMP-7", "result": "increased"}, {"measurement": "mRNA expression of uPA", "setting": "[1]", "result": "increased"}, {"measurement": "mRNA expression of Ets-1", "setting": "Ets-1", "result": "increased"}]}
